Read-outs that look alike come from different tables or passages of the source.
Legend:
[1] = system: KYSE70TR cells; test: MTT assay, drug-resistant cell line; format: cell-based, human
Description: (§3) The compounds were dissolved in DMSO to make a 50 mM stock solution and were diluted to the concentration of working solutions with the complete growth medium before administration.
(§4) Cells were seeded in 96-well plates with densities of 2,200–2,500 cells/well in 100 μL. One day after seeding, the concentration of the test compounds between 0 and 50 μM, 0.1% DMSO was added to cells as control. […] After 48 h, MTT was added and incubated in the plate for 1–4 h in the incubator.

[2] = system: H1650 cells; test: MTT assay for cell proliferation and cytotoxicity; format: cell-based; conditions: Homo sapiens, NCI-H1650, 48 h, read-out: IC50 H1650
Description: as §3, §4

[3] = system: KYSE450 cells; test: MTT assay for cell proliferation and cytotoxicity; format: cell-based; conditions: Homo sapiens, KYSE-450, 48 h, read-out: IC50 KYSE450
Description: as §3, §4

[4] = system: HCC827GR cells; test: MTT assay, drug-resistant cell line; format: cell-based, human
Description: as §3, §4

[5] = system: H1650TR cells; test: MTT assay, drug-resistant cell line; format: cell-based, human
Description: as §3, §4

[6] = system: KYSE410TR cells; test: MTT assay, drug-resistant cell line; format: cell-based, human
Description: as §3, §4

[7] = system: human esophageal epithelial cell SHEE; test: MTT assay, toxicity against normal cells; format: cell-based; conditions: Homo sapiens, read-out: IC50 SHEE
Description: Cells were seeded in 96-well plates with densities of 2,200–2,500 cells/well in 100 μL. One day after seeding, the concentration of the test compounds between 0 and 50 μM, 0.1% DMSO was added to cells as control. Approximately 2200-2500 transfected cells in 100 μL were incubated in quintuplicate in 96-well plates. After 48 h, MTT was added and incubated in the plate for 1–4 h in the incubator.

[8] = system: KYSE450TR cells; test: Flow cytometry detection for cell apoptosis (Annexin V/PI); format: cell-based, human; conditions: 48 h
Description: (§1) Cell apoptosis analysis was carried out by flow cytometry using the Annexin V/PI apoptosis methods. […] The cells were harvested and incubated with 250 μL of 1 × Annexin V binding buffer containing 5 μL of PI and 5 μL of FITC Annexin V (final concentration 1.8 μg/ml, Biolegend cat: 640945) for 15 min at room temperature in the dark. Then 200 µL of 1 × binding buffer was added for flow cytometry analysis (BD FACSCalibur™ Flow Cytometer).

[9] = system: KYSE450 cells; test: as above; format: cell-based, human; conditions: 48 h
Description: as §1

[10] = system: KYSE70 cells; test: MTT assay for cell proliferation and cytotoxicity; format: cell-based; conditions: Homo sapiens, KYSE-70, 48 h, read-out: IC50 KYSE70
Description: as §3, §4

[11] = system: KYSE410 cells; test: MTT assay for cell proliferation and cytotoxicity; format: cell-based; conditions: Homo sapiens, KYSE-410, 48 h, read-out: IC50 KYSE410
Description: as §3, §4

[12] = system: KYSE450TR cells; test: MTT assay, drug-resistant cell line; format: cell-based, human
Description: as §3, §4

[13] = system: H1650TR; test: Resistance index determination of drug resistance cell lines; format: cell-based, human; conditions: for IC50: Homo sapiens, H1650TR
Description: (§2) […]. Three types of esophageal cancer cell lines KYSE70TR, KYSE410TR, and KYSE450TR which were resistant to paclitaxel, and NSCLC cell lines HCC827GR and H1650TR, which were resistant to gefitinib and paclitaxel, respectively, were also tested for the comparison purpose.

[14] = system: KYSE 450TR; test: as above; format: cell-based, human; conditions: for IC50: Homo sapiens, KYSE 450TR
Description: as §2

[15] = system: KYSE 410TR; test: as above; format: cell-based, human; conditions: for IC50: Homo sapiens, KYSE 410TR
Description: as §2

[16] = system: KYSE 70TR; test: as above; format: cell-based, human; conditions: for IC50: Homo sapiens, KYSE 70TR
Description: as §2

[17] = system: KYSE 450; test: as above; format: cell-based; conditions: Homo sapiens
Description: as §2

[18] = system: KYSE 70; test: as above; format: cell-based; conditions: Homo sapiens
Description: as §2

[19] = system: KYSE 410; test: as above; format: cell-based; conditions: Homo sapiens
Description: as §2

[20] = system: H1650; test: as above; format: cell-based; conditions: Homo sapiens
Description: as §2

## C#Cc1cccc(Nc2ncnc3cc(OCCOC)c(OCCOC)cc23)c1 [Erlotinib]
[1]; Homo sapiens, read-out: IC50 KYSE70TR, MTT, paclitaxel-resistant esophageal cancer cell line
  IC50: > 10000 nM
[1]; read-out: IC50 KYSE70TR, MTT, paclitaxel-resistant esophageal cancer cell line
  IC50: > 20000 nM
[2]
  IC50: 14000 ± 1190 nM
[3]
  IC50: 7600 ± 510 nM
[4]; Homo sapiens, read-out: IC50 HCC827GR, MTT, gefitinib-resistant lung cancer cell line
  IC50: > 10000 nM
[4]; read-out: IC50 HCC827GR, MTT, gefitinib-resistant lung cancer cell line
  IC50: > 20000 nM
[5]; Homo sapiens, read-out: IC50 H1650TR, MTT, paclitaxel-resistant lung cancer cell line
  IC50: > 10000 nM
[5]; read-out: IC50 H1650TR, MTT, paclitaxel-resistant lung cancer cell line
  IC50: > 20000 nM
[6]; Homo sapiens, read-out: IC50 KYSE410TR, MTT, paclitaxel-resistant esophageal cancer cell line
  IC50: > 10000 nM
[6]; read-out: IC50 KYSE410TR, MTT, paclitaxel-resistant esophageal cancer cell line
  IC50: > 20000 nM
[7]
  IC50: 21000 ± 2110 nM
[8]; 5 μM
  proportion of apoptotic cells: 10.16%
[8]; 10 μM
  proportion of apoptotic cells: 16.68%
[9]; KYSE450, 5 μM
  proportion of apoptotic cells: 7.04%
[9]; KYSE450, 10 μM
  proportion of apoptotic cells: 8.94%
[10]
  IC50: > 50000 nM
[11]
  IC50: 5000 ± 460 nM
[12]; Homo sapiens, read-out: IC50 KYSE450TR, MTT, paclitaxel-resistant esophageal cancer cell line
  IC50: > 10000 nM
[12]; read-out: IC50 KYSE450TR, MTT, paclitaxel-resistant esophageal cancer cell line
  IC50: > 20000 nM

## CC(=O)O[C@H]1C(=O)[C@@]2(C)[C@H]([C@H](OC(=O)c3ccccc3)[C@]3(O)C[C@H](OC(=O)[C@H](O)[C@@H](NC(=O)c4ccccc4)c4ccccc4)C(C)=C1C3(C)C)[C@]1(OC(C)=O)CO[C@@H]1C[C@@H]2O [paclitaxel]
[13]; H1650TR vs H1650, 24 h IC50
  Resistance index: 4.74
[13]; H1650TR vs H1650, 48 h IC50
  Resistance index: 7.74
[13]; 24 h, read-out: 24 h IC50
  IC50: 4130 ± 208 nM
[13]; 48 h, read-out: 48 h IC50
  IC50: 645 ± 45 nM
[14]; 24 h, read-out: 24 h IC50
  IC50: 266 ± 66.1 nM
[14]; 48 h, read-out: 48 h IC50
  IC50: 120 ± 32.1 nM
[14]; KYSE 450TR vs KYSE 450, 24 h IC50
  Resistance index: 4.84
[14]; KYSE 450TR vs KYSE 450, 48 h IC50
  Resistance index: 15.38
[15]; 24 h, read-out: 24 h IC50
  IC50: 6400 ± 430 nM
[15]; 48 h, read-out: 48 h IC50
  IC50: 1710 ± 86.4 nM
[15]; KYSE 410TR vs KYSE 410, 24 h IC50
  Resistance index: 5
[15]; KYSE 410TR vs KYSE 410, 48 h IC50
  Resistance index: 32.88
[16]; 24 h, read-out: 24 h IC50
  IC50: 4920 ± 274 nM
[16]; 48 h, read-out: 48 h IC50
  IC50: 1120 ± 35.2 nM
[16]; KYSE 70TR vs KYSE 70, 24 h IC50
  Resistance index: 7.69
[16]; KYSE 70TR vs KYSE 70, 48 h IC50
  Resistance index: 56
[17]; KYSE 450, 24 h, read-out: 24 h IC50
  IC50: 55.03 ± 0.33 nM
[17]; KYSE 450, 48 h, read-out: 48 h IC50
  IC50: 7.82 ± 0.84 nM
[18]; KYSE 70, 24 h, read-out: 24 h IC50
  IC50: 640 ± 43 nM
[18]; KYSE 70, 48 h, read-out: 48 h IC50
  IC50: 20.2 nM
[19]; KYSE 410, 24 h, read-out: 24 h IC50
  IC50: 1280 ± 69.3 nM
[19]; KYSE 410, 48 h, read-out: 48 h IC50
  IC50: 52 ± 3.45 nM
[20]; NCI-H1650, 24 h, read-out: 24 h IC50
  IC50: 870 ± 43.5 nM
[20]; NCI-H1650, 48 h, read-out: 48 h IC50
  IC50: 83.3 ± 3.33 nM

Source: paper PMC9065260 (Frontiers in Pharmacology, 2022)
